Assay [1] deals with hippocampal CA3-CAl areas. Nature of the assay: Long-term potentiation (LTP) testing in vivo, Example 2. To be noted: 11 months old, FIG. 4; for fEPSP values / LTP response evoked after the HFS train, in words: compared with Control group (and NeuAc group). Further details: species or system Sprague-Dawley rat. The protocol: In order to establish the role of sialylated oligosaccharides in cognition, rat pups were supplemented with 6'-sialyllactose (6'-SL) from postnatal day 3 (PND3) and their learning and memory abilities were analyzed later in life. Rat performance in a classical spatial cognitive task (Y-maze), Novel object Recognition, protocol of spatial learning in the novel Intellicage® system, and Morris water maze were carried out once the animals reached 12 and 14 months of age. LTP response in hippocampus was also evaluated in vivo once the animals reached 11 months of age. The Y-maze, Object Recognition and the IntelliCage® allow the determination of spatial orientation and memory capabilities of experimental animals. The same female rats performed all the tests.
The pups from the second cohort were divided into three groups and given the following designations: the 6'-SL supplemented group, the NeuAc supplemented group and the control group. Initially, each group comprised 20 male pups. Due to premature deaths there were a total of 14 pups in the 6'-SL supplemented group at the end of the lactation. The 6'-SL supplemented group received 6'-SL supplementation (8 doses/day) in order to reach the same sialic acid levels as normally reared pups. The amount of 6'-SL given to the 6'-SL supplemented group was selected to follow the change in concentration of sialic acid in rat milk, ranging from 1.5 g/Kg body weight on day 3 to 0.5 g/Kg body weight at weaning. The maximum amount of sialic acid given to a pup was a maximum of 2 mg/Kg on day 8.
There were a total of 16 male pups in the NeuAc supplemented group at the end of lactation. The NeuAc supplemented group received NeuAc supplementation in order to reach the same sialic acid levels as normally reared pups. The amount of NeuAc given to the NeuAc supplemented group was selected to follow the change in concentration of sialic acid in rat milk, ranging from 1.5 g/Kg body weight on day 3 to 0.5 g/Kg body weight at weaning. The maximum amount of sialic acid given to any pup was 2 mg/Kg on day 8,
Long-term potentiation (LTP) measurements were performed in each of the three groups, i.e., the 6'-SL Supplemented Group, the NeuAc -Supplemented Group and the Control Group. The testing was done while the animals were alive and 11 months old, which is about age 40 in human years. Experiments were done in order to determine the functionality of hippocampus in vivo. […]
To evoke LTP, the following high frequency stimulation (HFS) protocol was used: each animal was subjected to five 200 Hz, 100 ms trains of pulses at a rate of l/s. […] After the HFS protocol, fEPSPs were recorded again for 30 minutes. […]
The HFS train is indicated by the downward arrow. […] The baseline was recorded at 15, 10, and 5 minutes before HFS.

Assay [2] has as its system rats. Put plainly: Intellicage testing, Example 2. The format is in vivo, Sprague-Dawley rat. As to conditions: 14-15 months old, compared with Control group. The protocol:
IntelliCage® (NewBehavior AG) is a computer-based, fully automated testing apparatus used to analyze spontaneous and learned behavior. Eight rats in each group were tested. The rats were 14-15 months old, which corresponds to 55-60 years old for humans, when these tests were performed. Animals remain in the cage during several days and behavior is recorded during the entire testing period. Different paradigms can be tested by restricting water access to specific places and time periods. Each animal is assigned a corner where it can access water. Access to the water is only allowed during discrete time periods. Thus, each animal must learn when access to water bottles is allowed and which corner, out of four, has been assigned to it. Access to the corner is controlled by a door that opens only when the assigned rat enters its nose in a hole. […] Access to non-assigned corners remain blocked except during two 90 min periods during the night.

Assay [3] has as its system rats. Put plainly: Novel Object Recognition testing, Example 2. To be noted: 13 months old; retention test one day after acquisition phase; FIG. 5. It counts as in vivo, Sprague-Dawley rat. The protocol: Perirhinal cortex and hippocampus are involved in the novel object recognition task. Novel Object Recognition Testing was performed when the rats were 13 months old, which corresponds to 45-50 years old for humans. Eight animals were tested.
During a habituation phase of the test, the rats were allowed to explore an "arena" for 20 minutes per day for 3 consecutive days. The arena was a black, open plastic chamber. Next, an acquisition phase took place wherein the animals interfaced with two different objects. These object are defined as "familiar." The rats were allowed to the arena while the familiar objects were present for 10 minutes. One day after the acquisition phase, a retention test was performed on the rats, wherein one of the familiar objects was replaced by a new object. The new object is defined as "novel." The rats were allowed to explore the arena for 5 minutes during the retention test. In theory, animals that remember familiar objects will spend more time exploring the novel object than the familiar one.

In assay [4] the test system is rats. Put plainly: Y-maze testing, Example 2 (Acquisition Trial and Retention Trial). It counts as in vivo, Sprague-Dawley rat. As to conditions: 14 months old. The protocol: A Y-maze test was performed when the rats were 14 months old, which corresponds to 50-55 years old in humans. Eight rats in each group were tested. The Y-maze testing was performed in two phases: an Acquisition Trial and a Retention Trial. Rats in each group were evaluated in the Y-maze.
During the Acquisition Trial, one of the three arms of the Y-maze was blocked, and animals were allowed to explore the other two arms for 15 minutes. The Retention Trial took place 4 hours after the Acquisition Trial. During the Retention Trial, all three arms were open and animals were allowed to explore for 5 minutes. The amount of time each animal spent at the start of the Y-maze and each arm was evaluated.

The values that follow come from patent EP2880993A1, “Method of achieving memory and learning improvement by the administration of sialic acid” (ABBOTT LABORATORIES, priority 2013, dated 2015).

The structures appear in SMILES notation. “Also recorded” adds a separate entry of the source.

`CC(=O)NC1C(O)CC(OCC2OC(OC3C(CO)OC(O)C(O)C3O)C(O)C(O)C2O)(C(=O)O)OC1C(O)C(O)CO` (centres unmarked) [6'-SL, 6'-sialyllactose]: the “persistence of LTP induction” value in assay [1] (after the second day, followed for up to 4 days) was “remaining; also recorded: remained at elevated levels even 4 days post stimulus”. For the same molecule, the “fEPSP values / LTP response evoked after the HFS train, in words” value was “significantly larger” in assay [1] and “strongest response; also recorded: significantly higher LTP response levels than those of the control group” in assay [1] (listed as 6'SL). Further, the speed of learning result in assay [2] is on record as “seemed to learn faster than the Control group”. Further, in assay [2] (FIG. 8), the “visits to the correct corner versus the incorrect corner (performance)” value is “performed better compared to the Control group”. In addition, in assay [3], the “time spent exploring the novel object versus the familiar object” value was “significantly more time visiting the novel object than the familiar one; also recorded: distinguish better between the familiar and novel object”. For the same molecule, the “latency to blocked arm” value in assay [4] (Retention Trial 4 hours after Acquisition Trial, compared with Control group, FIG. 6) was “lower values of latency to the blocked arm in comparison with Control group”. Also, the “percentage of animals visiting the previously blocked arm first” value in assay [4] (Retention Trial, compared with control animals, FIG. 7) is given as “significantly higher than that of the control animals”.
